For assay [1], the target named is T1, human FKBP52FK1 (Homo sapiens, UniProt Q02790).
T1 sequence (Q02790 50-138 limits assumed): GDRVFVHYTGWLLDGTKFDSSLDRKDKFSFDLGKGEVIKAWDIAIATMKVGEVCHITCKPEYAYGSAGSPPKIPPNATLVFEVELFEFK
As to the kind of experiment: Fluorescence polarization assay, binding to FK1 domain of FKBP52. The conditions noted are these: for IC50: binding affinity, fluorescence polarization assay; for inhibition at 5 µM: read-out: FKBP52 FK1 % inhibition. A general note: Fluorescence polarisation rises when a labelled molecule tumbles more slowly, as on binding a larger partner.

In assay [2] the target is T2, human FKBP51FK1 (Homo sapiens, UniProt Q13451).
T2 sequence (Q13451 42-130 limits assumed): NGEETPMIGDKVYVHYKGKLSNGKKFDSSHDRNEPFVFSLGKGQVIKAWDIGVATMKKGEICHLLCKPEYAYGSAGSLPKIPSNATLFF
As to the kind of experiment: Fluorescence polarization assay, binding to FK1 domain of FKBP51. The conditions noted are these: for IC50: binding affinity, fluorescence polarization assay; for inhibition at 5 µM: read-out: FKBP 51 FK1 % inhibition.

[3] abbreviates: at a concentration of 5 μM, library testing.

Where two headings read alike, the source gives them in different places.

For orientation: IC50 means the concentration that inhibits the measured activity by half. For the molecule “2-(3-((R)-1-((S)-1-(3-cyanophenylsulfonyl)piperidine-2-carbonyloxy)-3-(3,4-dimethoxyphen-yl)propyl)phenoxy)acetic acid [Compound 6]”, the IC50 in assay [1] stood at 69.9 ± 65.4 µM; in assay [2] it was 28.5 ± 9.6 µM.
With “2-(3-((R)-1-((S)-1-(benzo[d]thiazol-5-ylsulfonyl)piperidine-2-carbonyloxy)-3-(3,4-dimethoxy phenyl)propyl)phenoxy)acetic acid [Compound 3]”, the “FKBP52 FK1 % inhibition” value in assay [1] (setting [3]) is on record as 16.1%. In addition, the results for the IC50 in assay [1] and in assay [2] were 32.5 ± 3.5 µM and 11.6 ± 1.1 µM, respectively. The “FKBP 51 FK1 % inhibition” value in assay [2] (setting [3]) was 25.5%.
Usually inhibition stands for how much of the control response was suppressed. For the molecule `COc1ccc(CC[C@@H](OC(=O)[C@@H]2CCCCN2S(=O)(=O)c2ccc(-c3ncccn3)cc2)c2cccc(OCC(=O)O)c2)cc1OC` [Compound 1, 2-(3-((R)-3-(3,4-dimethoxyphenyl)-1-((S)-1-(4-(pyrimidin-2-yl)phenylsulfonyl)piperidine-2-carbonyloxy)propyl)phenoxy)acetic acid], the inhibition at 5 µM was 15.2% in assay [1] (setting [3]) and 16.3% in assay [2] (setting [3]). In assay [2], this molecule returned an IC50 of 62.8 ± 10.7 µM.
Regarding `COc1ccc(CC[C@@H](OC(=O)[C@@H]2CCCCN2S(=O)(=O)c2cccc(Cl)c2)c2cccc(OCC(=O)O)c2)cc1OC` [Compound 2], in assay [1], the IC50 was found to be 32.8 ± 14.5 µM and the inhibition at 5 µM came out at 18%. For the same molecule, in assay [2], the IC50 is 30.7 ± 15.7 µM and the inhibition at 5 µM is 17.5%.
Take `COc1ccc(CC[C@@H](OC(=O)[C@@H]2CCCCN2S(=O)(=O)c2cc3ccccc3s2)c2cccc(OCC(=O)O)c2)cc1OC` [Compound 5]: the inhibition at 5 µM in assay [1] (setting [3]) amounted to 15.2%; in assay [2] (setting [3]), 12.4%. The same molecule had a half-inhibitory concentration (IC50) in assay [2] of 67.1 ± 12.1 µM.
Take `COc1ccc(CC[C@@H](OC(=O)[C@@H]2CCCCN2S(=O)(=O)c2cccc(F)c2)c2cccc(OCC(=O)O)c2)cc1OC` [Compound 11, 2-(3-((R)-3-(3,4-dimethoxyphenyl)-1-((S)-1-(3-fluorophenylsulfonyl)piperidine-2-carbonyloxy)propyl)phenoxy)acetic acid]: the values for the IC50 in assay [1] and in assay [2] were 37.3 ± 13.6 µM and 18.2 ± 8.8 µM, respectively.
`COc1ccc(CC[C@@H](OC(=O)[C@@H]2CCCCN2S(=O)(=O)c2cccc(Br)c2)c2cccc(OCC(=O)O)c2)cc1OC` [Compound 12, 2-(3-((R)-1-((S)-1-(3-bromophenylsulfonyl)piperidine-2-carbonyloxy)-3-(3,4-dimethoxyphenyl)propyl)phenoxy)acetic acid]: the figures for the IC50 in assay [1] and in assay [2] were 17.1 ± 11 µM and 3.06 ± 0.25 µM, respectively.
As for `COc1ccc(CC[C@@H](OC(=O)[C@@H]2CCCCN2S(=O)(=O)c2cc(Cl)cc(Cl)c2)c2cccc(OCC(=O)O)c2)cc1OC` [Compound 13, 2-(3-((R)-1-((S)-1-(3,5-dichlorophenylsulfonyl)piperidine-2-carbonyloxy)-3-(3,4-dimethoxy-phenyl)propyl)phenoxy)acetic acid], the IC50 in assay [1] was 14.3 ± 1.8 µM; in assay [2], 22.6 ± 8.2 µM.
Take `COc1ccc(S(=O)(=O)N2CCCC[C@H]2C(=O)O[C@H](CCc2ccc(OC)c(OC)c2)c2cccc(OCC(=O)O)c2)cc1Cl` [Compound 16, 2-(3-((R)-1-((S)-1-(3-chloro-4-methoxyphenylsulfonyl)piperidine-2-carbonyloxy)-3-(3,4-dimethoxyphenyl)propyl)phenoxy)aceticacid]: the IC50 in assay [1] was 20.2 ± 3.5 µM; in assay [2], 18.8 ± 2.4 µM.
Regarding `COc1ccc(CC[C@@H](OC(=O)[C@@H]2CCCCN2S(=O)(=O)c2cc(Cl)c(O)c(Cl)c2)c2cccc(OCC(=O)O)c2)cc1OC` [Compound 21, 2-(3-((R)-1-((S)-1-(3,5-dichloro-4-hydroxyphenylsulfonyl)piperidine-2-carbonyloxy)-3-(3,4-dimethoxyphenyl)propyl)phenoxy)acetic acid], the IC50 was found to be 56.6 ± 12.2 µM in assay [1] and 15.1 ± 1.4 µM in assay [2].
On to `COc1ccc(CC[C@@H](OC(=O)[C@@H]2CCCCN2S(=O)(=O)c2cc(Cl)c(OC)c(Cl)c2)c2cccc(OCC(=O)O)c2)cc1OC` [Compound 22, 2-(3-((R)-1-((S)-1-(3,5-dichloro-4-methoxyphenylsulfonyl)piperidine-2-carbonyloxy)-3-(3,4-dimethoxyphenyl)propyl)phenoxy)acetic acid], for which the IC50 amounted to 17.7 ± 1.6 µM in assay [1] and 16.4 ± 1.7 µM in assay [2].
The like results for `COc1ccc(CC[C@@H](OC(=O)[C@@H]2CCCCN2S(=O)(=O)c2cc(Cl)c(NC(C)=O)c(Cl)c2)c2cccc(OCC(=O)O)c2)cc1OC` [Compound 23, 2-(3-((R)-1-((S)-1-(4-acetamido-3,5-dichlorophenylsulfonyl)piperidine-2-carbonyloxy)-3-(3,4-dimethoxyphenyl)propyl)phenoxy)acetic acid] were, in that order, 15.6 ± 2.2 µM and 8.9 ± 0.9 µM.
Turning to `COc1ccc(CC[C@@H](OC(=O)[C@@H]2CCCCN2S(=O)(=O)c2cc3c(c([N+](=O)[O-])c2)OCC3)c2cccc(OCC(=O)O)c2)cc1OC` [Compound 25, 2-(3-((R)-3-(3,4-dimethoxyphenyl)-1-((S)-1-(7-nitro-2,3-dihydrobenzofuran-5-ylsulfonyl)piperidine-2-carbonyloxy)propyl)phenoxy)acetic acid], the IC50 in assay [1] came out at 43.9 ± 10.1 µM; in assay [2], 27.2 ± 3.1 µM.
As for `COc1ccc(CC[C@@H](OC(=O)[C@@H]2CCCCN2S(=O)(=O)c2ccc3nc(C)sc3c2)c2cccc(OCC(=O)O)c2)cc1OC` [Compound 27, 2-(3-((R)-3-(3,4-dimethoxyphenyl)-1-((S)-1-(2-methylbenzo[d]thiazol-6-ylsulfonyl)piperidine-2-carbonyloxy)propyl)phenoxy)acetic acid], the IC50 was found to be 26.5 ± 4.9 µM in assay [1] and 18.4 ± 1.4 µM in assay [2].
For `COc1ccc(CC[C@@H](OC(=O)[C@@H]2CCCCN2S(=O)(=O)c2ccc3[nH]c(=O)sc3c2)c2cccc(OCC(=O)O)c2)cc1OC` [Compound 28, 2-(3-((R)-3-(3,4-dimethoxyphenyl)-1-((S)-1-(2-oxo-2,3-dihydrobenzo[d]thiazol-6-ylsulfonyl)piperidine-2-carbonyloxy)propyl)phenoxy)aceticacid], the IC50 worked out at 66.5 ± 27.1 µM in assay [1] and 14.7 ± 1.1 µM in assay [2].
Regarding `COc1ccc(CC[C@@H](OC(=O)[C@@H]2CCCCN2S(=O)(=O)c2cc(Cl)c(O)c(Cl)c2)c2cccc(OCCN3CCOCC3)c2)cc1OC` [Compound 33, (S)-((R)-3-(3,4-dimethoxyphenyl)-1-(3-(2-morpholinoethoxy)phenyl)propyl)1-(3,5-dichloro-4-hydroxyphenylsulfonyl)piperidine-2-carboxylate], the figures for the IC50 in assay [1] and in assay [2] were 0.71 ± 0.1 µM and 0.456 ± 0.05 µM, respectively.
`COc1ccc(CC[C@@H](OC(=O)[C@@H]2CCCCN2S(=O)(=O)c2cc(Cl)c(NC(C)=O)c(Cl)c2)c2cccc(OCCN3CCOCC3)c2)cc1OC` [Compound 34, (S)-((R)-3-(3,4-dimethoxyphenyl)-1-(3-(2-morpholinoethoxy)phenyl)propyl)1-(4-acetamido-3,5-dichlorophenylsulfonyl)piperidine-2-carboxylate]: the IC50 was 8.3 ± 6.8 µM in assay [1] and 12.3 ± 18.9 µM in assay [2].
As to `COc1ccc(CC[C@@H](OC(=O)[C@@H]2CCCCN2S(=O)(=O)c2ccc3[nH]c(=O)sc3c2)c2cccc(OCCN3CCOCC3)c2)cc1OC` [Compound 35, (S)-((R)-3-(3,4-dimethoxyphenyl)-1-(3-(2-morpholinoethoxy)phenyl)propyl)1-(2-oxo-2,3-dihydrobenzo[d]thiazol-6-ylsulfonyl)piperidine-2-carboxylate], the IC50 was 2.5 ± 0.38 µM in assay [1] and 1.3 ± 0.13 µM in assay [2].
Regarding `COc1ccc(CC[C@@H](OC(=O)[C@@H]2CCCCN2S(=O)(=O)c2ccc(Cl)cc2)c2cccc(OCC(=O)O)c2)cc1OC` [Compound 36, 2-(3-((R)-1-((S)-1-(4-chlorophenylsulfonyl)piperidine-2-carbonyloxy)-3-(3,4-dimethoxyphenyl)propyl)phenoxy)acetic acid], the inhibition at 5 µM in assay [1] is 15.2%; in assay [2] it was 11.7%.
Regarding `COc1ccc(CC[C@@H](OC(=O)[C@@H]2CCCCN2S(=O)(=O)c2ccc(F)cc2)c2cccc(OCC(=O)O)c2)cc1OC` [Compound 38, 2-(3-((R)-3-(3,4-dimethoxyphenyl)-1-((S)-1-(4-fluorophenylsulfonyl)piperidine-2-carbonyloxy)propyl)phenoxy)acetic acid], the inhibition at 5 µM in assay [1] (setting [3]) is 6.6%; in assay [2] (setting [3]), 4.3%.
In the case of `COc1ccc(CC[C@@H](OC(=O)[C@@H]2CCCCN2S(=O)(=O)c2ccc(C(F)(F)F)cc2)c2cccc(OCC(=O)O)c2)cc1OC` [Compound 40, 2-(3-((R)-3-(3,4-dimethoxyphenyl)-1-((S)-1-(4-(trifluoromethyl)phenylsulfonyl)piperidine-2-carbonyloxy)propyl)phenoxy)acetic acid], the inhibition at 5 µM in assay [1] (setting [3]) worked out at 12.3%; in assay [2] (setting [3]), 8.9%.
For the molecule `COc1ccc(CC[C@@H](OC(=O)[C@@H]2CCCCN2S(=O)(=O)c2ccc(Oc3ccccc3)cc2)c2cccc(OCC(=O)O)c2)cc1OC` [Compound 41, 2-(3-((R)-3-(3,4-dimethoxyphenyl)-1-((S)-1-(4-phenoxyphenylsulfonyl)piperidine-2-carbonyloxy)propyl)phenoxy)acetic acid], the inhibition at 5 µM in assay [1] (setting [3]) is 15.2%; in assay [2] (setting [3]), 7.2%.
Take `COc1ccc(CC[C@@H](OC(=O)[C@@H]2CCCCN2S(=O)(=O)c2cccnc2)c2cccc(OCC(=O)O)c2)cc1OC` [Compound 42, 2-(3-((R)-3-(3,4-dimethoxyphenyl)-1-((S)-1-(pyridin-3-ylsulfonyl)piperidine-2-carbonyloxy)propyl)phenoxy)acetic acid]: the inhibition at 5 µM in assay [1] turned out to be 9.5%; in assay [2] it was 6.6%.
